Laboratory results reported in ChEMBL document CHEMBL1134931, “Aminoalkoxybiphenylnitriles as histamine-3 receptor ligands” (Bioorg Med Chem Lett, 2002).

What was measured:
[1] = target: T1, Histamine H3 receptor (Homo sapiens, UniProt Q9Y5N1); assay: Binding affinity at human cloned Histamine H3 receptor
[2] = target: T2, Histamine H1 receptor (Homo sapiens, UniProt P35367); assay: Binding affinity of human cortical histamine H1 receptor
[3] = target: T3, Histamine H3 receptor (Rattus norvegicus, UniProt Q9QYN8); assay: Binding affinity at rat cortical Histamine H3 receptor
T3 sequence (Q9QYN8 whole entry): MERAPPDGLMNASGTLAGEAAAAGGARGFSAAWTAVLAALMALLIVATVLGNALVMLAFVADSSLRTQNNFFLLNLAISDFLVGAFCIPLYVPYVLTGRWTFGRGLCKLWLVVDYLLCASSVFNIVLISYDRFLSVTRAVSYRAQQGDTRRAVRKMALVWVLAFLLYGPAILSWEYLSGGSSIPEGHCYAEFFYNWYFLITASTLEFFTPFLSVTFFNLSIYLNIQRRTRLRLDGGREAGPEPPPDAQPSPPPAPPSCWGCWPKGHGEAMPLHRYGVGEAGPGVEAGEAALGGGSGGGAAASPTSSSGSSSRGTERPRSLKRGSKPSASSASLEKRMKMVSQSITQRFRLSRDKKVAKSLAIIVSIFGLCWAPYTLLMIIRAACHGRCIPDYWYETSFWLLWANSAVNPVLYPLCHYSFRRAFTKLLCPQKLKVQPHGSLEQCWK

[4] = target: T4, Histamine H2 receptor (Homo sapiens, UniProt P25021); assay: Binding affinity to the human cortical histamine H2 receptor
T4 sequence (P25021 whole entry): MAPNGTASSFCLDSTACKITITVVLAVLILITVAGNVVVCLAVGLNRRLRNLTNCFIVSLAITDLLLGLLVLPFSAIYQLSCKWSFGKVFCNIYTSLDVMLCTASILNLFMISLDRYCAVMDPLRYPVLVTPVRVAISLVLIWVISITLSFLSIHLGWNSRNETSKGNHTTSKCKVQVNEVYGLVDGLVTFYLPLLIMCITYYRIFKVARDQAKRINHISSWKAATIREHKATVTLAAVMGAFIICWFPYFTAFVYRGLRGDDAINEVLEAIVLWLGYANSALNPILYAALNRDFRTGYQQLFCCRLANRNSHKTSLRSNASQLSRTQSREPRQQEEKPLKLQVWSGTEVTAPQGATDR

[5] = target: T2, Histamine H1 receptor; assay: Binding affinity at human cortical Histamine 1 receptor
[6] = target: T4, Histamine H2 receptor; assay: Binding affinity at human cortical Histamine 2 receptor
[7] = target: T1, Histamine H3 receptor; assay: Binding affinity at human cloned Histamine 3 receptor
[8] = target: T3, Histamine H3 receptor; assay: Binding affinity at rat cortical Histamine 3 receptor

T1 sequence (Q9Y5N1 whole entry): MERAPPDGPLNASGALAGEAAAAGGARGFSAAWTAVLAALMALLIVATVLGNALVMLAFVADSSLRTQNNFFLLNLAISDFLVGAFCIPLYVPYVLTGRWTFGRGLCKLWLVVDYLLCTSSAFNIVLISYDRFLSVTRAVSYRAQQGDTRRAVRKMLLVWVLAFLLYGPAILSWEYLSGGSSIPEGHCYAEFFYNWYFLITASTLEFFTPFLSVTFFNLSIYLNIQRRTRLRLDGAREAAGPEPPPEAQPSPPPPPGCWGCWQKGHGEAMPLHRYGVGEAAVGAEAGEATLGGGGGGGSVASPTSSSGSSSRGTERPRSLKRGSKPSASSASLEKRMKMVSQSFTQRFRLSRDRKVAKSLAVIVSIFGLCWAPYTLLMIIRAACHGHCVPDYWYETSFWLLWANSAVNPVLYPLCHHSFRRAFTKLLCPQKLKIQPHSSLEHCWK
T2 sequence (P35367 whole entry): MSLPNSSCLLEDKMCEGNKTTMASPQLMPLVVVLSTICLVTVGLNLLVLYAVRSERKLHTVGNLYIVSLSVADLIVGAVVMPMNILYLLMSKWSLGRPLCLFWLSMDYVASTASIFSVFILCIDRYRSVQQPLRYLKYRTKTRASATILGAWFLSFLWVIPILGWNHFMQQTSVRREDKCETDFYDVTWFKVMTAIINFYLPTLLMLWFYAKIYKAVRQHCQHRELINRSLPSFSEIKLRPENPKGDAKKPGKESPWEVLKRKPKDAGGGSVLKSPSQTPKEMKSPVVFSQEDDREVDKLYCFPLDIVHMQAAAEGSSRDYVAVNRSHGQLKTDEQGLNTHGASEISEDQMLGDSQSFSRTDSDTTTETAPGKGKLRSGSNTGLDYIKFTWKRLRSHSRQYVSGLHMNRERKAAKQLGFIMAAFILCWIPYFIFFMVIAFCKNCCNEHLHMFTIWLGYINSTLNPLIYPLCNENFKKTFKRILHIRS

| SMILES | Ki [1] | Ki [2] | Ki [3] | Ki [4] | Ki [5] | Ki [6] | Ki [7] | Ki [8] |
| --- | --- | --- | --- | --- | --- | --- | --- | --- |
| N#Cc1ccc(-c2ccc(OCCCN3CCC(O)CC3)cc2)cc1 | 123 nM | 575 nM | 31.6 nM | 10000 nM | – | – | – | – |
| N#Cc1ccc(-c2ccc(OCCCN3CCC(N)CC3)cc2)cc1 | – | – | – | – | 3550 nM | 33900 nM | 200 nM | 129 nM |
| CC1CCCCN1CCCOc1ccc(-c2ccc(C#N)cc2)cc1 (stereo not given) | 7.08 nM | 3470 nM | 22.9 nM | 18600 nM | – | – | – | – |
| N#Cc1ccc(-c2ccc(OCCCN3CC[C@@H](O)C3)cc2)cc1 | – | – | – | – | 4470 nM | 17000 nM | 8.32 nM | – |
| CCOC(=O)N1CCN(CCCOc2ccc(-c3c[nH]cn3)cc2)CC1 | – | 1480 nM | 871 nM | 69200 nM | – | – | – | – |
| N#Cc1ccc(-c2ccc(OCCCN3CC[C@@H](N)C3)cc2)cc1 | – | – | – | – | 13800 nM | 7410 nM | 6.17 nM | 63.1 nM |
| CCOC(=O)N1CCN(CCCOc2ccc(-c3cccc(C#N)c3)cc2)CC1 | – | – | – | – | 380 nM | 24000 nM | – | – |
| CCOC(=O)N1CCN(CCCOc2ccc(-c3ccc(Cl)cc3)cc2)CC1 | – | – | – | – | 355 nM | 5620 nM | – | 191 nM |
| CC1CCCC(C)N1CCCOc1ccc(-c2ccc(C#N)cc2)cc1 (stereo not given) | 2.14 nM | 3980 nM | 16.2 nM | 24000 nM | – | – | – | – |
| CCOC(=O)N1CCN(CCCOc2ccc(-c3ccsc3)cc2)CC1 | – | 759 nM | 209 nM | 97700 nM | – | – | – | – |
| N#Cc1ccc(-c2ccc(OCCCN3CCNCC3)cc2)cc1 | 117 nM | 8910 nM | 589 nM | 22900 nM | – | – | – | – |
| CCOC(=O)N1CCN(CCCOc2ccc(-c3ccccc3[N+](=O)[O-])cc2)CC1 | – | – | – | – | 162 nM | 7590 nM | – | 617 nM |
| N#Cc1ccc(-c2ccc(OCCCN3CCCNCC3)cc2)cc1 | 8.32 nM | 3890 nM | 13.5 nM | 7760 nM | – | – | – | – |
| N#Cc1ccc(-c2ccc(OCCCN3CCOCC3)cc2)cc1 | 36.3 nM | 3240 nM | 25.1 nM | 38000 nM | – | – | – | – |
| CN[C@@H]1CCN(CCCOc2ccc(-c3ccc(C#N)cc3)cc2)C1 | 8.51 nM | 3720 nM | – | 10000 nM | – | – | – | – |
| N#Cc1ccc(-c2ccc(OCCCN3CCCC(O)C3)cc2)cc1 (stereo not given) | 30.2 nM | 7760 nM | 81.3 nM | 12900 nM | – | – | – | – |
| C[C@@]1(O)CCN(CCCOc2ccc(-c3ccc(C#N)cc3)cc2)C1 | 4.07 nM | 3890 nM | 15.5 nM | 15100 nM | – | – | – | – |
| N#Cc1ccc(-c2ccc(OCCCN3CCCC3)cc2)cc1 | – | – | – | – | 5010 nM | 67600 nM | 7.24 nM | 41.7 nM |
| CCOC(=O)N1CCN(CCCOc2ccc(-c3ccc([N+](=O)[O-])cc3)cc2)CC1 | – | – | – | – | 81.3 nM | 8320 nM | – | 97.7 nM |
| N#Cc1ccc(-c2ccc(OCCCN3CC[C@H](O)C3)cc2)cc1 | – | – | – | – | 5620 nM | 19100 nM | 19.5 nM | 126 nM |
| CN(C)[C@@H]1CCN(CCCOc2ccc(-c3ccc(C#N)cc3)cc2)C1 | 2.75 nM | 1910 nM | 13.5 nM | 10000 nM | – | – | – | – |
| CCOC(=O)N1CCN(CCCOc2ccc(-c3ccncc3)cc2)CC1 | – | 3720 nM | – | 57500 nM | – | – | – | – |
| N#Cc1ccc(-c2ccc(OCCCN3CC4CNCC4C3)cc2)cc1 (stereo not given) | 15.1 nM | 2880 nM | 66.1 nM | 12300 nM | – | – | – | – |

Now from value to compound:

| Ki [1] | Ki [2] | Ki [3] | Ki [4] | Ki [5] | Ki [6] | Ki [7] | Ki [8] | SMILES |
| --- | --- | --- | --- | --- | --- | --- | --- | --- |
| 1000 nM | 501 nM | 56.2 nM | 12900 nM | – | – | – | – | CCOC(=O)N1CCN(CCCOc2ccc(-c3cc[nH]c3)cc2)CC1 |
| – | 355 nM | – | 100000 nM | – | – | – | – | CCOC(=O)N1CCN(CCCOc2ccc(-c3ccc(OC)cc3)cc2)CC1 |
| – | 27.5 nM | 102 nM | 3980 nM | – | – | – | – | CCOC(=O)N1CCN(CCCOc2ccc(-c3ccc(C#N)cc3C)cc2)CC1 |
| 0.676 nM | 562 nM | 6.46 nM | 9120 nM | – | – | – | – | C[C@@H]1CC[C@@H](C)N1CCCOc1ccc(-c2ccc(C#N)cc2)cc1 |
| – | 447 nM | 229 nM | 33100 nM | – | – | – | – | CCOC(=O)N1CCN(CCCOc2ccc(-c3cccs3)cc2)CC1 |
| – | 182 nM | 112 nM | 1660 nM | – | – | – | – | CCOC(=O)N1CCN(CCCOc2ccc(-c3ccc(Br)cc3)cc2)CC1 |
| 1000 nM | 158 nM | 28.2 nM | 28800 nM | – | – | – | – | CCOC(=O)N1CCN(CCCOc2ccc(-c3ccc(C#N)cc3)cc2)CC1 |
| 1.7 nM | 275 nM | 26.3 nM | 11700 nM | – | – | – | – | CC1CCCN(CCCOc2ccc(-c3ccc(C#N)cc3)cc2)C1 (stereo not given) |
| 13.8 nM | 427 nM | 9.77 nM | 9120 nM | – | – | – | – | CC1CCN(CCCOc2ccc(-c3ccc(C#N)cc3)cc2)CC1 |
| – | 437 nM | 240 nM | 3630 nM | – | – | – | – | CCOC(=O)N1CCN(CCCOc2ccc(-c3ccc(OC(F)(F)F)cc3)cc2)CC1 |
